Key:
[1] = molecular target: T1, human GnRHR (Homo sapiens, UniProt P30968); experiment: Tag-Lite receptor binding assay; details: Hek293 cells transiently transfected with human GnRHR; displacement of green-labelled GnRHR binding peptide; read-out: Potency in receptor binding assay using TAG-LITE technology, given as IC50
T1 construct: own knowledge: Tag-lite cells usually carry an N-terminal SNAP-tag fusion; host or cells: Hek293 cells, transiently transfected, supplied frozen
T1 sequence (P30968 1-328): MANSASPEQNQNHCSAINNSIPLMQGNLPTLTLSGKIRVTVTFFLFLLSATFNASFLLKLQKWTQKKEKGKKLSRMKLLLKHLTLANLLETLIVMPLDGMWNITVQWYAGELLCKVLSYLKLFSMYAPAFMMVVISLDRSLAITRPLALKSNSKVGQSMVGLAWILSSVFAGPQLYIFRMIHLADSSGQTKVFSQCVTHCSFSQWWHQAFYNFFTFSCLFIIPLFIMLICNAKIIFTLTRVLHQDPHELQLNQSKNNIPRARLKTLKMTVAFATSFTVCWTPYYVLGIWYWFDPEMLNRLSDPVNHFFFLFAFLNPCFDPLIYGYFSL
Source text: 2.2. Tag-Lite® Receptor Binding Assay
This binding assay is based on the fluorescence resonance energy transfer between fluorescence donor labelled human GnRHR and a green-labelled GnRHR binding peptide. Compounds interfering with the ligand binding side of the human GnRHR will replace the labelled peptide resulting in a signal decrease. The assay principle was established by Cisbio Bioassays (Bagnols-sur-Cèze Cedex, France) and further details are available on their homepage.
The assay procedure was further optimized for use in-house with reduced assay volumes. Frozen Hek293 cells, transiently transfected with human GnRHR and Terbium-labelling of the receptor, were supplied by Cisbio Bioassays as well as Tag-Lite buffer and green-labelled GnRHR binding peptide. Cells were thawed and transferred to cold Tag-Lite buffer. A volume of 8 μl of this cell suspension were added to 100 nl of a 160-fold concentrated solution of the test compound in DMSO pre-dispensed in a well of a white low-volume 384-well microtiter plate (Greiner Bio-One, Frickenhausen, Germany). The mixture was incubated for 5 min at room temperature. In the next step either 4 μl Tag-Lite buffer or as control 4 μl of an exceeding amount unlabelled binding peptide in Tag-Lite buffer were transferred to the mixture. The green-labelled GnRHR binding peptide was added in a final step at EC50 in a volume of 4 μl Tag-Lite buffer. After an incubation of 1 h at room temperature plates were measured in a microplate reader, e.g. a PHERAstar (BMG Labtechnologies, Offenburg, Germany) by using a specific optic module.
A ratio from the fluorescence emissions at 520 nm (green fluorescence) and at 490 nm (background signal of Terbium-labelled GnRHR) was calculated and the data were normalized (reaction without test compound=0% inhibition of binding of green-labelled peptide; reaction without test compound with exceeding amount unlabelled binding peptide=100% inhibition of binding of green-labelled peptide). On the same microtiter plate, compounds were tested at 10 different concentrations in the range of 12.5 μM to 0.64 nM (12.5 μM, 4.2 μM, 1.4 μM, 0.46 μM, 0.15 μM, 51 nM, 17 nM, 5.7 nM, 1.9 nM and 0.64 nM; dilution series prepared before the assay at the level of the 160-fold conc. stock solutions by serial 1:3 dilutions in 100% DMSO) in duplicate values for each concentration. By using an in-house software, the IC50 values were calculated by a 4 parameter fit.

[2] = molecular target: T2, human GnRH receptor (Homo sapiens, UniProt P30968); experiment: IP-One HTRF assay with buserelin stimulation; assay type: cell-based; details: CHO cells stably expressing human GnRH receptor; buserelin at EC80; read-out: Potency in IP-One HTRF assay with buserelin (at EC80) stimulation, given as IC50
T2 construct: host or cells: CHO cells stably expressing human GnRH receptor (line established by Prof. Thomas Gudermann)
T2 sequence (P30968 1-328): T1 sequence (P30968 1-328)
Source text: By using homogenous time-resolved fluorescence resonance energy transfer (HTRF), the generation of one component of the GnRH-R signalling cascade can be measured. After stimulation of CHO cells stably expressing human GnRH receptor (established by Prof. Thomas Gudermann, currently University of Marburg, Germany; supplied as frozen cell aliquots by Cell Culture Services, Hamburg, Germany) with the EC80 of the GnRH agonist buserelin, Gq protein-coupled receptor signalling cascade is activated resulting in PLC-dependent cleavage of PIP2 to Inositol-1,4,5-triphosphate (IP3) and Diacylglycerol. The second messenger IP3 is degraded intracellularly to myo-inositol. Inhibition of the final degradation step from Inositol-1-phosphate (IP1) to myo-inositol by addition of lithium chloride leads to accumulation of IP1 in the cells. In cell lysates, IP1 can be detected via an antibody-based HTRF detection technology, where IP1 can displace the FRET acceptor IP1-d2 from binding by Terbium-labelled anti-IP1 antibody as donor resulting in a signal decrease. Compounds were tested for their capability of inhibiting GnRH-R activation by buserelin. For all IP-One HTRF® assays reagents of Cisbio Bioassays (IP-One Tb Jumbo kit, #62IPAPEJ; Cisbio Bioassays, Bagnols sur Cèze Cedex, France) were used.
For the assay, frozen cell aliquots were thawed and a cell suspension (3.33×10^6 cells/mL) containing IP1-d2 (dilution 1:40) was prepared and incubated at 37° C. After 1 h 3 μl of the cell suspension were added to 50 nl of a 100-fold concentrated solution of the test compound in DMSO pre-dispensed in a well of a white low-volume 384-well microtiter plate (Greiner Bio-One, Frickenhausen, Germany). […] Plates were incubated for 1 h at 37° C. and 5% carbon dioxide before the cells were lysed by adding 3 μl Terbium-labelled anti-IP1 antibody (1:40) diluted in Conjugate & Lysis buffer as supplied with the kit. After an incubation for 1 h at 22° C. to enable complete cell lysis and antibody binding to free IP1 or IP1-d2, plates were measured in an HTRF reader, e.g. a RUBYstar, PHERAstar (both BMG Labtechnologies, Offenburg, Germany) or a Viewlux (PerkinElmer LAS, Rodgau-Jügesheim, Germany).
From the fluorescence emissions at 665 nm (FRET) and at 620 nm (background signal of Terbium-antibody), the ratio (emission at 665 nm divided by emission at 620 nm) was calculated and the data were normalized (reaction without test compound=0% inhibition; all other assay components except agonist=100% inhibition). On the same microtiter plate, compounds were tested at 10 different concentrations in the range of 20 μM to 1 nM (20 μM, 6.7 μM, 2.2 μM, 0.74 μM, 0.25 μM, 82 nM, 27 nM, 9.2 nM, 3.1 nM and 1 nM; dilution series prepared before the assay at the level of the 100-fold conc. stock solutions by serial 1:3 dilutions in 100% DMSO) in duplicate values for each concentration. By using an in-house software, the IC50 values were calculated by a 4 parameter fit.
Within the meaning of the present invention the antagonist activity is reflected by the ability of a compound of the invention to antagonize human GnRH receptor stimulation in IP-One HTRF® assay at least three times the standard deviation over the background level.

[3] = In vivo pharmacokinetics in rats; details: Wistar, rat, plasma, po, male rats, 2 mg/kg p.o.
Protocol: 2.4 In Vivo Pharmacokinetics in Rats
For in vivo pharmacokinetic experiments test compounds were administered to male Wistar rats intravenously at a dose of 0.5 mg/kg and intragastral at a dose of 2 mg/kg formulated as solutions using solubilizers such as PEG400 or Solutol in well-tolerated amounts.
For pharmacokinetics after intravenous administration test compounds were given as i.v. bolus and blood samples were taken at 2 min, 8 min, 15 min, 30 min, 45 min, 1 h, 2 h, 4 h, 7 h and 24 h after dosing. […] For pharmacokinetics after intragastral administration test compounds were given intragastral to fasted rats and blood samples were taken at 8 min, 15 min, 30 min, 45 min, 1 h, 2 h, 4 h, 7 h and 24 h after dosing. […] Blood was collected into Lithium-Heparintubes (Monovetten®, Sarstedt) and centrifuged for 15 min at 3000 rpm. An aliquot of 100 μL from the supernatant (plasma) was taken and precipitated by addition of 400 μL cold acetonitril and frozen at −20° C. over night. Samples were subsequently thawed and centrifuged at 3000 rpm, 4° C. for 20 minutes. Aliquots of the supernatants were taken for analytical testing using an Agilent 1200 HPLC-system with LCMS/MS detection. PK parameters were calculated by non-compartmental analysis using a PK calculation software.
PK parameters derived from concentration-time profiles after i.v.: CLplasma: Total plasma clearance of test compound (in L/kg/h); CLblood: Total blood clearance of test compound: CLplasma*Cp/Cb (in L/kg/h) with Cp/Cb being the ratio of concentrations in plasma and blood. PK parameters calculated from concentration time profiles after i.g.: Cmax: Maximal plasma concentration (in mg/L); Cmaxnorm: Cmax divided by the administered dose (in kg/L); Tmax: Time point at which Cmax was observed (in h). Parameters calculated from both, i.v. and i.g. concentration-time profiles: AUCnorm: Area under the concentration-time curve from t=0 h to infinity (extrapolated) divided by the administered dose (in kg*h/L); AUC(0−tlast)norm: Area under the concentration-time curve from t=0 h to the last time point for which plasma concentrations could be measured divided by the administered dose (in kg*h/L); t½: terminal half-life (in h); F: oral bioavailability: AUCnorm after intragastral administration divided by AUCnorm after intravenous administration (in %).

**Q.** What does the source list for `O=C(NCc1ncc(C(F)(F)F)cc1Cl)c1ccc2c(c1)C1(CCS(=O)(=O)CC1)[C@@H](C1CC1)N2S(=O)(=O)c1ccc(F)cc1` [Example 3.2, (2R)—N-{[3-chloro-5-(trifluoromethyl)pyridin-2-yl]methyl}-2-cyclopropyl-1-[(4-fluorophenyl)sulfonyl]-1,2,2′,3′,5′,6′-hexahydrospiro[indole-3,4′-thiopyran]-5-carboxamide 1′,1′-dioxide]?
**A.** IC50 [1]: 748 nM; IC50 [2]: 2430 nM

**Q.** For `O=C(NCc1ncc(C(F)(F)F)cc1Cl)c1ccc2c(c1)C1(CCS(=O)(=O)CC1)C(C1CC1)N2S(=O)(=O)c1cccc(OC(F)F)c1` (racemic) [Example 14, N-{[3-chloro-5-(trifluoromethyl)pyridin-2-yl]methyl}-2-cyclopropyl-1-{[3-(difluoromethoxy)phenyl]sulfonyl}-1,2,2′,3′,5′,6′-hexahydrospiro[indole-3,4′-thiopyran]-5-carboxamide 1′,1′-dioxide], which IC50 [1] is on record?
**A.** 78.7 nM

**Q.** And the IC50 [2]?
**A.** 82 nM

**Q.** Which IC50 [2] does the source give for `N#Cc1ccc(S(=O)(=O)N2c3ccc(C(=O)NCc4ncc(C(F)(F)F)cc4Cl)cc3C3(CCS(=O)(=O)CC3)[C@@H]2C2CC2)cc1` (single isomer, unassigned) [Example 8.1] here?
**A.** 10 nM

**Q.** What about the half-life [3] of the same molecule?
**A.** 5 h

**Q.** And the bioavailability ([3]; AUCnorm intragastral / AUCnorm i.v. (0.5 mg/kg), read-out: F (oral bioavailability))?
**A.** 17%

**Q.** Which IC50 [2] does the source give for `O=C(NCc1ncc(C(F)(F)F)cc1Cl)c1ccc2c(c1)C1(CCS(=O)(=O)CC1)C(C1CC1)N2S(=O)(=O)c1cccc(OC(F)(F)F)c1` (racemic) [Example 12, N-{[3-chloro-5-(trifluoromethyl)pyridin-2-yl]methyl}-2-cyclopropyl-1-{[3-(trifluoromethoxy)phenyl]sulfonyl}-1,2,2′,3′,5′,6′-hexahydrospiro[indole-3,4′-thiopyran]-5-carboxamide 1′,1′-dioxide] here?
**A.** 219 nM

**Q.** For `O=C(NCc1ncc(C(F)(F)F)cc1Cl)c1ccc2c(c1)C1(CCS(=O)(=O)CC1)C(C1CC1)N2S(=O)(=O)c1ccc(OC(F)F)cc1` (racemic) [Example 16, N-{[3-chloro-5-(trifluoromethyl)pyridin-2-yl]methyl}-2-cyclopropyl-1-{[4-(difluoromethoxy)phenyl]sulfonyl}-1,2,2′,3′,5′,6′-hexahydrospiro[indole-3,4′-thiopyran]-5-carboxamide 1′,1′-dioxide], which IC50 [2] is on record?
**A.** 37 nM

**Q.** With `NC(=O)c1ccc(S(=O)(=O)N2c3ccc(C(=O)NCc4ncc(C(F)(F)F)cc4Cl)cc3C3(CCS(=O)(=O)CC3)C2C2CC2)cc1` (racemic) [Example 17, 1-[(4-carbamoylphenyl)sulfonyl]-N-{[3-chloro-5-(trifluoromethyl)pyridin-2-yl]methyl}-2-cyclopropyl-1,2,2′,3′,5′,6′-hexahydrospiro[indole-3,4′-thiopyran]-5-carboxamide 1′,1′-dioxide] as the molecule, how does the IC50 [2] read?
**A.** 260 nM

**Q.** For `O=C(NCc1ncc(C(F)(F)F)cc1F)c1ccc2c(c1)C1(CCS(=O)(=O)CC1)C(C1CC1)N2S(=O)(=O)c1ccc(F)cc1` (racemic) [Example 1, 2-cyclopropyl-1-[(4-fluorophenyl)sulfonyl]-N-{[3-fluoro-5-(trifluoromethyl)pyridin-2-yl]methyl}-1,2,2′,3′,5′,6′-hexahydrospiro[indole-3,4′-thiopyran]-5-carboxamide 1′,1′-dioxide], which IC50 [2] is on record?
**A.** 420 nM

**Q.** For `N#Cc1cccc(S(=O)(=O)N2c3ccc(C(=O)NCc4ncc(C(F)(F)F)cc4Cl)cc3C3(CCS(=O)(=O)CC3)[C@H]2C2CC2)c1` (single isomer, unassigned) [Example 10.2], which IC50 [2] is on record?
**A.** 1970 nM

**Q.** For `O=C(NCc1ncc(C(F)(F)F)cc1Cl)c1ccc2c(c1)C1(CCS(=O)(=O)CC1)C(C1CC1)N2S(=O)(=O)c1ccc(OC(F)F)cc1` (single isomer, unassigned) [Example 16.2], which IC50 [2] is on record?
**A.** 879 nM

From patent US20160052936A1, “SPIROINDOLINE DERIVATIVES FOR USE AS GONADOTROPIN-RELEASING HORMONE RECEPTOR ANTAGONISTS” (BAYER PHARMA AKTIENGESELLSCHAFT, priority 2013, published 2016)
